In article PMC4532424, “The Novel Cyclophilin Inhibitor CPI-431-32 Concurrently Blocks HCV and HIV-1 Infections via a Similar Mechanism of Action” (PLoS ONE, 2015):
Where two headings read alike, the source gives them in different places. Non-standard residues stand in square brackets, D forms with d. Residues, ends and D or L forms follow the SMILES beside them. NMeThr(4R-Me,4-(CH2)6NHAc) = CN[C@H](C(=O)O)[C@H](O)[C@H](C)CCCCCCNC(C)=O; NMeL = CN[C@@H](CC(C)C)C(=O)O; NMeV = CN[C@H](C(=O)O)C(C)C; dNMeA = CN[C@H](C)C(=O)O; Abu = CC[C@H](N)C(=O)O

How the values were obtained:
Human recombinant CypA = biological target: T1, Human recombinant CypA (Homo sapiens, UniProt P62937); assay: α-chymotrypsin-coupled CypA isomerase inhibition assay; format: biochemical; conditions: one representative experiment, mean ± SD; 10 nM CypA, 5°C
T1 construct: purchased Atgen
Procedure: Succinyl-AAPF-pNA peptide substrate (Sigma) was dissolved to 3.2 mM in dried LiCl/trifluoroethanol. […] All solutions were equilibrated, and reactions conducted at 5°C. Reactions were initiated by mixing 95 μL reaction mix with 5 μL peptide preloaded in multiple wells of 96-well plates and measuring OD405 nm in each well at 6-sec intervals for 6 min using a BMG Polarstar Galaxy plate reader. Data were fitted with Graphpad Prism 6.0 to obtain first-order rate constants.

CypA-HCV NS5A complex = CypA-HCV NS5A complex (Homo sapiens, UniProt P62937); assay: CypA-HCV NS5A interaction ELISA; conditions: Table 2; NS5A-His on GST-CypA-coated plates, 16 h at 4°C; read-out: IC50, inhibition of NS5A binding to CypA
Procedure: Recombinant GST-CypA, full-length HCV NS5A Con1 (pET-Ub-NS5A Con1-His) and HIV-1 capsid NL4.3 (pET-capsid-His) were expressed and purified as described previously. Inhibition of CypA-HCV NS5A and CypA-HIV-1 capsid interactions by the CypI […] were conducted as we described previously.
CypI are thought to inhibit the infection of HIV-1 and HCV mostly by preventing CypA-HIV-1 capsid and CypA-HCV NS5A interactions, respectively. The potency of CypI at inhibiting these interactions was determined using an ELISA assay previously developed in our laboratory. For analyzing CypA-HCV NS5A interactions, recombinant NS5A-His was added to GST-CypA-coated wells for 16 h at 4°C in the absence or presence of CypI, followed by detection of captured NS5A-His with anti-His antibodies. A similar assay was used for CypA-HIV-1 interactions except with recombinant His-tagged HIV-1 capsid.

HIV-1 JR-CSF [1] = assay: HIV-1 mono-infection of CD4+ T-lymphocytes, p24 ELISA; format: cell-based; conditions: Fig 1A
Excerpt: Hemoglobin determinations at every donation protect the donor from phlebotomy-induced anemia. The donor pool also provides investigators with a mix of gender and minority subjects, and recruitment is ongoing for underrepresented minorities. At the present time, the NBDS has 320 active normal blood donors enrolled. Use of the Normal Blood Donor Service is considered “human subjects” research and each investigator who wants to use the service must submit a protocol to the IRB for review and approval. Dr. Gallay has current IRB approval for the human blood obtained for research described in this manuscript. Protocol No: IRB-15-6552. Full name of the IRB is "Scripps IRB". […] Consent from blood donors was obtained verbally. The authors have no access to identifying donor information for these samples.

HIV-1 JR-CSF [2] = assay: HIV-1/HCV co-culture co-infection, HIV-1 p24 ELISA; format: cell-based
Procedure: CD4+ T-lymphocytes and Huh7.5.1 cells uninfected or infected for 3 h as described above were mixed in a single flask and HIV-1 and HCV replication monitored over a period of 3 weeks as described above.
HIV-1 target cells—CD4+ T-lymphocytes—and HCV target cells—hepatoma cells—were placed in a single chamber (flask), exposed to both HIV-1 and HCV, and viral replication monitored over time by p24 capsid and core ELISAs, respectively.
CD4+ T-lymphocytes (A) and Huh7.5.1 cells (B) (0.5 x 10^6 cells) (triplicates) were exposed to HIV-1 JR-CSF and HCV JFH-1. Drugs (2 μM) were added 3 h pre-viral exposure (top panels) or 3 days post-viral exposure (bottom panels). Viral replications were monitored by HIV-1 p24 and HCV core ELISAs. C. CD4+ T-lymphocytes (0.5 x 10^6 cells) (triplicates) were exposed to HIV-1 JR-CSF. Drugs were initially added 3 days post-viral exposure (2 μM) and then daily (0.5 μM). Viral replications were monitored by HIV-1 p24 and HCV core ELISAs. […] D. Model for the HIV-1/HCV co-culture system.

[3] = system: HIV-1 reverse transcriptase (nevirapine)-resistant; assay: HIV-1 infection of TZM reporter cells, β-galactosidase; format: cell-based; conditions: read-out: EC50, inhibition of HIV-1 infection
Excerpt: (§1) the reverse transcriptase inhibitor-resistant HIV-1 variant (nevirapine-resistant N119), the protease inhibitor-resistant HIV-1 variant (saquinavir-resistant), and the naturally occurring primary ALV-resistant variant CMU08 (contributed by Kenrad Nelson) were obtained from the AIDS Research and Reference Reagent Program. Lab-adapted wild-type NL4.3 and the ALV-resistant V86P/H87Q/I91V/M96I NL4.3 capsid mutant variant were described previously. For infection scoring, TZM-bl target cells (contributed by J. C. Kappes, X. Wu, and Tranzyme, Inc.) obtained through the AIDS Research and Reference Reagent Program were exposed to wild-type or drug-resistant HIV-1 variants (1 ng of p24) together with increasing concentrations of DMSO or CypI. HIV-1 infection was quantified 48 h post-infection by measuring β-galactosidase activity in cell lysates.
(§2) We then tested the efficacy of CPI-431-32 and ALV against a panel of drug-resistant HIV-1 and HCV variants. Specifically, we measured CPI-431-32 EC50 on a reverse transcriptase inhibitor-resistant HIV-1 variant (nevirapine-resistant), a protease inhibitor-resistant HIV-1 variant (saquinavir-resistant), and two partially ALV-resistant HIV-1 variants—a lab-adapted resistant variant (V86P/H87Q/I91V/M96I capsid mutant) and a naturally occurring primary partially resistant variant (CMU08). […] HIV-1 infection was quantified 48 h post-infection by measuring β-galactosidase activity in cell lysates.

[4] = system: HIV-1 protease (saquinavir)-resistant; assay: as above; format: cell-based; conditions: read-out: EC50, inhibition of HIV-1 infection
Excerpt: as §1, §2

[5] = system: HIV-1 ALV-resistant (NL4.3 V86P/H87Q/I91V/M96I); assay: as above; format: cell-based; conditions: read-out: EC50, inhibition of HIV-1 infection
Excerpt: as §1, §2

[6] = system: HIV-1 ALV-resistant (CMU8); assay: as above; format: cell-based; conditions: read-out: EC50, inhibition of HIV-1 infection
Excerpt: as §1, §2

HIV-1 wild-type (NL4.3) = assay: as above; format: cell-based; conditions: read-out: EC50, inhibition of HIV-1 infection
Excerpt: as §1, §2

[7] = drug treatments begun 3 h before virus addition
[8] = single dose added 3 days post-infection
[9] = Human immunodeficiency virus 1, TZM, 48 h

Chain of CypA-HCV NS5A complex (P62937 whole entry, one chain of several): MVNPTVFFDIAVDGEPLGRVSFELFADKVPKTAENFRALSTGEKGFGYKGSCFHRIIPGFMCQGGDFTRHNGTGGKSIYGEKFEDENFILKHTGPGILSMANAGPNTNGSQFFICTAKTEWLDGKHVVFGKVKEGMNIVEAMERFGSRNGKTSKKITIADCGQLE
T1 sequence (P62937 whole entry): as the sequence (P62937 whole entry, one chain of several) above

| Structure (SMILES) | IC50 (Human recombinant CypA) | IC50 (CypA-HCV NS5A complex) | Effect on HIV-1 replication (in words) (HIV-1 JR-CSF [1]) | Effect on HIV-1 replication (in words) (HIV-1 JR-CSF [2]; [7]) | Effect on HIV-1 replication (in words) (HIV-1 JR-CSF [2]; [8]) | EC50 [3, 9] | EC50 [4, 9] | EC50 [5, 9] | EC50 [6, 9] | EC50 (HIV-1 wild-type (NL4.3); Human immunodeficiency virus 1, 48 h post-infection) | EC50 ([3]; HIV-1 reverse transcriptase (nevirapine)-resistant, TZM cells, 48 h post-infection) | EC50 ([4]; HIV-1 protease (saquinavir)-resistant, TZM cells, 48 h post-infection) | EC50 ([5]; HIV-1 ALV-resistant (NL4.3 V86P/H87Q/I91V/M96I), TZM cells, 48 h post-infection) | EC50 ([6]; HIV-1 ALV-resistant (CMU8), TZM cells, 48 h post-infection) | EC50 (HIV-1 wild-type (NL4.3); 48 h post-infection) |
| --- | --- | --- | --- | --- | --- | --- | --- | --- | --- | --- | --- | --- | --- | --- | --- |
| C/C=C/C[C@@H](C)[C@@H](O)[C@H]1C(=O)N[C@@H](CC)C(=O)N(C)[C@H](C)C(=O)N(CC)[C@@H](C(C)C)C(=O)N[C@@H](C(C)C)C(=O)N(C)[C@@H](CC(C)C)C(=O)N[C@@H](C)C(=O)N[C@H](C)C(=O)N(C)[C@@H](CC(C)C)C(=O)N(C)[C@@H](CC(C)C)C(=O)N(C)[C@@H](C(C)C)C(=O)N1C [ALV, Alisporivir] | 2.8 ± 0.4 nM | 420 ± 50 nM | efficiently blocked viral growth | totally prevented HIV-1 replication | a small degree of replication occurred within the first 3 days of addition | 100 ± 20 nM | 160 ± 20 nM | 2300 ± 300 nM | 5600 ± 400 nM | 120 ± 30 nM | – | – | – | – | – |
| CC[C@@H]1NC(=O)[C@H]([C@H](O)[C@H](C)CCCCCCNC(C)=O)N(C)C(=O)[C@H](C(C)C)N(C)C(=O)[C@H](CC(C)C)N(C)C(=O)[C@H](CC(C)C)N(C)C(=O)[C@@H](C)NC(=O)[C@H](C)NC(=O)[C@H](CC(C)C)N(C)C(=O)[C@H](C(C)C)NC(=O)[C@H](CC(C)C)N(C)C(=O)[C@@H](C)N(C)C1=O [CPI-431-32] (cyclo(A[dA][NMeL][NMeL][NMeV][NMeThr(4R-Me,4-(CH2)6NHAc)][Abu][dNMeA][NMeL]V[NMeL])) | 1.8 ± 0.6 nM | 180 ± 30 nM | efficiently blocked viral growth | totally prevented HIV-1 replication | halted HIV-1 replication | – | – | – | – | – | 30 ± 10 nM | 70 ± 20 nM | 900 ± 100 nM | 2100 ± 100 nM | 50 ± 10 nM |
